Experimental findings from patent US20070154538A1, “Removal of fat cells by PDT” (CeramOptec GmbH, priority 2005, published 2007) are described below.

Molecules are shown by their SMILES.

The series can be described thus: solubility of the photosensitizer in triglycerides. Type of series: physicochemical. As to conditions: the main component of adipose cells.

With `Oc1cccc(-c2c3nc(c(-c4cccc(O)c4)c4ccc([nH]4)c(-c4cccc(O)c4)c4nc(c(-c5cccc(O)c5)c5ccc2[nH]5)CC4)C=C3)c1` [mTHPC, temoporfin], the “solubility level in the triglycerides” value was “low solubility level”.
